This is an account of results in US10835500B2, “Medicament for accelerated wound healing” (Symrise AG, priority 2014, dated 2020).

Assay [1] addresses T1, recombinantly expressed OR2AT4 (Homo sapiens, UniProt A6NND4).
T1 construct: expressed in transfected cells; host or cells: Hana3A cells, transient transfection with pcDNA3-OR2AT4 by the calcium phosphate method
T1 sequence (A6NND4 1-320): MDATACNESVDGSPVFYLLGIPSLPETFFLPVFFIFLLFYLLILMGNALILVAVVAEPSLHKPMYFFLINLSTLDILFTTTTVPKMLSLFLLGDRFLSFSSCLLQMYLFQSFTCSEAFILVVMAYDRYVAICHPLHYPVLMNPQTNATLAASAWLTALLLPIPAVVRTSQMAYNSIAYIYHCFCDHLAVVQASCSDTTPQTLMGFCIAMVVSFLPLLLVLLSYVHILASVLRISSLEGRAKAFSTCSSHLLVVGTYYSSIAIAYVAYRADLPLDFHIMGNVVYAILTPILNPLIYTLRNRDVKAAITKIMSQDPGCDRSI
As to the kind of experiment: Calcium imaging of transiently OR2AT4-transfected Hana3A cells. The conditions noted are these: 1 mM odorant, 20 s stimulation, OR2AT4-transfected Hana3A cells. The format is cell-based. As to the method: Hana3A cells expressing stable endogenous olfactory transduction factors, which specifically target the incorporation of ORs into the cell membrane and thus improve activation capacity, were used as a heterologous expression system. Moreover, the 20 first N-terminal amino acids of rhodopsins (Rho-tag) were added before the N-terminus of the coding sequence of the OR, also in order to support heterologous expression.
A method established at the Department of Cell Physiology of Ruhr University Bochum for deorphanization studies is calcium imaging, in which activation of an OR by an odorant is visualized by a change in the intracellular calcium concentration of transfected cells using a fluorescent dye [cf. Wetzel et al. in: J. Neurosci. 19, pp. 7426-7433 (1999); Spehr et al. in: Science 299, pp. 2054-2058 (2003); Neuhaus et al. in: J. Biol. Chem. 284, pp. 16218-16225 (2009)]. In this method, the Hana3A cells are briefly (20 s) stimulated with an odorant and selected for odorant screenings of high concentrations (up to 1 mM) in order to confirm activation of ORs weakly expressed in Hana3A cells.
The activation of OR2AT4 by Sandalore® was first investigated by the calcium imaging method.
Odorants can not only activate a receptor, but can also act as antagonists to an OR.
(§1) Determination of receptive field of recombinantly expressed OR2AT4. […] As a control, untransfected Hana3A cells were simulated with Sandalore®. 100 μM of ATP was used at the end of each measurement as a positive control stimulus. […] The mean response rate including standard error of the cells is shown relative to the Ringer control. […] Isobornyl.: isobornyl cyclohexanol; S. öl: sandalwood oil. Kruskal-Wallis test with multiple comparison. *: p<0.05. […] Significance was determined between Hana3A cells transfected with OR2AT4-pcDNA3 and pcDNA3 without an insert. The dots show mean normalized luciferase-activity including standard error. Mann-Whitney U test; n=3 experiments. *: p<0.05; **: p<0.01; ***: p<0.001.
Antagonists of recombinantly expressed OR2AT4. […] 100 μM of ATP was used at the end of each measurement as a positive control stimulus. […] The mean response rate including standard error of the cells is shown relative to the Ringer control. Number of measurements: Ringer (23), Sandalore® (22), Sandalore®+dimetol (11), dimetol (11), Phenirat (14), Sandalore®+Phenirat (22), Oxyphenylon (12), and Sandalore®+Oxyphenylon (20). S: Sandalore®. Kruskal-Wallis test with multiple comparison. *: p<0.05.

For assay [2], the target named is T1, recombinantly expressed OR2AT4. As to the kind of experiment: CRE dual luciferase assay in OR2AT4-transfected Hana3A cells. In kind it is cell-based. Particulars: for activation of OR2AT4 in the luciferase assay: up to the highest useable concentrations 10-25 μM.
From the text: In order to verify calcium imaging results and investigate dose-dependent activation of OR2AT4, a further method of deorphanization based on a dual luciferase system was used. In this method, in addition to the OR, two luciferases were introduced into the Hana3A cells. When the expressed OR is activated by an odorant and cAMP is formed in the further course of the signal cascade, this initiates expression of firefly luciferase via CRE (cAMP response elements). The second luciferase, Renilla luciferase, serves as a control for transfection and vitality of the cells. By calculating the two luciferase values, the activation capacity of an OR by an odorant can be determined. In the CRE luciferase assay, the odorant remains on the cells for hours in order to ensure that the luciferase is expressed. Because of the longer incubation time of the odorants and the possibility of activating more receptors in a 96-well format, this method is more sensitive than calcium imaging and is well-suited for establishing dose-response relationships.
For Brahmanol, however, a higher concentration (≥75 μM) was required than for Sandalore® (≥25 μM) in order to produce a significant effect at the receptor (FIG. 3c).
as §1

In the case of `CC1(CO)CC1CC1CC2CC2(C)C1(C)C` (centres unmarked) [Javanol], the “response rate of the Hana3A cells relative to the Ringer control” value in assay [1] is reported as “only Brahmanol showed an increased response rate”. In addition, in assay [2], the “activation of OR2AT4 in the luciferase assay” value is on record as “no increased activation of OR2AT4”.
For isobornyl cyclohexanol the same measures were “only Brahmanol showed an increased response rate” and “no increased activation of OR2AT4”.
In the case of `CC/C(=C\CC1CC=C(C)C1(C)C)CO` (centres unmarked) [Sandranol], the “response rate of the Hana3A cells relative to the Ringer control” value in assay [1] was “only Brahmanol showed an increased response rate”. The “reaction in the CRE luciferase assay” value in assay [2] (at the investigated concentration (≥50 μM)) is on record as “no reaction”.
Regarding `CC1=CCC(C=CC(C)(C)C(C)O)C1(C)C` (centres unmarked) [Polysantol], the “response rate of the Hana3A cells relative to the Ringer control” value in assay [1] is “only Brahmanol showed an increased response rate”. In addition, in assay [2], the “activation of OR2AT4 in the luciferase assay” value is reported as “no increased activation of OR2AT4”.
